# Literature values in patent US9662356B1, “Propolis-metal nanoparticle composition and methods of use” (Vets Plus, Inc., priority 2015, dated 2017).
# Tested on: otitis externa
# Details: case history: treated previously over the course of the year
row,Compound,outcome of previous antibiotic treatment of otitis externa
1,C[C@@H]1[C@H](O)[C@@H](C)/C=C/C=C/CC/C=C/C=C/C=C/C=C/C(O[C@H]2O[C@H](C)[C@@H](O)[C@H](N)[C@@H]2O)CC2O[C@](O)(CC(O)C(O)CCC(O)CC(O)CC(O)CC(=O)O[C@H]1C)CC(O)C2C(=O)O (stereo partly drawn) [nystatin],to no avail
2,neomycin,to no avail
3,polymyxin B,to no avail
